From patent US8614206B2 (Genentech, Inc., priority 2011, dated 2013)
Like-named read-outs stand apart in the source and are kept apart here.

Tests used:
PIM1 = PIM1 (Homo sapiens (Human), UniProt P11309); assay: Pim kinase inhibition, PIM1 LC3K (Example 901); format: biochemical
Excerpt: Determination of the Pim kinase activity of a Formula I compound is possible by a number of direct and indirect detection methods.

BaF3 parental cells = assay: In vitro cell proliferation, BaF3 parental line + IL3 (CellTiter-Glo); format: cell-based, murine; settings: read-out: Prolif BaF3 + IL3 (IC50)
BaF3 PIM1 cells = assay: cells; settings: Mus musculus, BaF3, read-out: Prolif BaF3_PIM1 (IC50), BaF3 PIM1 cells, incubated overnight
[1] = system: MM1.S (multiple myeloma) cells; assay: In vitro cell proliferation, MM1.S multiple myeloma cells (CellTiter-Glo, ATP); format: cell-based; settings: read-out: Prolif MM1S ATP (EC50)
Method in brief: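 BaF3 parental cells (medium with 2 ng/mL mIL-3) seeded at 2 k/well and MM1.S at 10 k/well, then exposed to test compound at 37° C, 5% CO2: BaF3 overnight, MM1.S for 72 hours. Viability read by CellTiter-Glo; IC50/EC50 values calculated.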

[2] = Mus musculus, BaF3, BaF3 parental cells with IL-3, incubated overnight

PIM1, sequence (P11309 whole entry): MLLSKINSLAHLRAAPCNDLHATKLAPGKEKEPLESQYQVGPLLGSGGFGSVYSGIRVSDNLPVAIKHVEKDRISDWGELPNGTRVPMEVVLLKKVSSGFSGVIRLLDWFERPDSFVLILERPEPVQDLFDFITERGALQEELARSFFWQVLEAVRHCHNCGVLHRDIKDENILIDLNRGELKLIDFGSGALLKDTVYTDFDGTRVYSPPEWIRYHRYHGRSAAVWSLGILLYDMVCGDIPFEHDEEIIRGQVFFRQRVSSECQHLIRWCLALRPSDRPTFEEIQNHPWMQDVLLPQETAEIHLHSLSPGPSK

## Cc1ccncc1-c1nc(C(=O)Nc2cnn(C)c2N2CC[C@@H](N)[C@H](F)CC2)c(N)s1 [Example 428, 5-amino-N-[5-[(4R,5R)-4-amino-5-fluoro-azepan-1-yl]-1-methyl-pyrazol-4-yl]-2-(4-methyl-3-pyridyl)thiazole-4-carboxamide]
PIM1
  Ki: 0.884 nM
BaF3 parental cells; [2]
  IC50: > 25000 nM
BaF3 PIM1 cells
  IC50: 6600 nM

## Cn1ncc(NC(=O)c2nc(-c3c(F)cccc3F)sc2N)c1N1CC[C@@H]2OC(=O)N[C@@H]2CC1 [Example 486, N-[5-[(3aR,8aS)-2-oxo-3a,4,5,7,8,8a-hexahydro-3H-oxazolo[4,5-d]azepin-6-yl]-1-methyl-pyrazol-4-yl]-5-amino-2-(2,6-difluorophenyl)thiazole-4-carboxamide]
PIM1
  Ki: 0.058 nM
BaF3 parental cells; [2]
  IC50: 11200 nM
BaF3 PIM1 cells
  IC50: 2300 nM

## Cn1ncc(NC(=O)c2nc(-c3c(F)cccc3F)sc2N)c1N1CC[C@@H]2NC(=O)O[C@@H]2CC1 [Example 488, N-[5-[(3aS,8aR)-2-oxo-3a,4,5,7,8,8a-hexahydro-3H-oxazolo[4,5-d]azepin-6-yl]-1-methyl-pyrazol-4-yl]-5-amino-2-(2,6-difluorophenyl)thiazole-4-carboxamide]
PIM1
  Ki: 0.353 nM
BaF3 parental cells; [2]
  IC50: 5400 nM
BaF3 PIM1 cells
  IC50: 2000 nM

## CCn1ncc(NC(=O)c2nc(-c3c(F)cccc3F)sc2N)c1N1CC[C@H](N)[C@@H](F)CC1 [Example 348, 5-amino-N-(5-((4S,5S)-4-amino-5-fluoroazepan-1-yl)-1-ethyl-1H-pyrazol-4-yl)-2-(2,6-difluorophenyl)thiazole-4-carboxamide]
PIM1
  Ki: 0.109 nM
BaF3 parental cells; [2]
  IC50: 11200 nM
BaF3 PIM1 cells
  IC50: 825 nM

## Cn1ncc(NC(=O)c2nc(-c3cccc(C#N)n3)sc2N)c1N1CC[C@@H](N)[C@H](F)CC1 [Example 432, 5-amino-N-[5-[(4R,5R)-4-amino-5-fluoro-azepan-1-yl]-1-methyl-pyrazol-4-yl]-2-(6-cyano-2-pyridyl)thiazole-4-carboxamide]
PIM1
  Ki: 1.44 nM
BaF3 parental cells; [2]
  IC50: 6300 nM
BaF3 PIM1 cells
  IC50: 5800 nM

## Cn1ncc(NC(=O)c2nc(-c3c(F)ccc(I)c3F)sc2N)c1N1CC[C@H](N)CC(F)(F)C1 [Example 347, 5-amino-N-[5-[(5S)-5-amino-3,3-difluoro-azepan-1-yl]-1-methyl-pyrazol-4-yl]-2-(2,6-difluoro-3-iodo-phenyl)thiazole-4-carboxamide]
PIM1
  Ki: 0.002 nM
BaF3 parental cells; [2]
  IC50: 2400 nM
BaF3 PIM1 cells
  IC50: 69.2 nM

## Cn1ncc(NC(=O)c2nc(-c3c(F)ccc(I)c3F)sc2N)c1N1CC[C@@H](N)CC(F)(F)C1 [Example 346, 5-amino-N-[5-[(5R)-5-amino-3,3-difluoro-azepan-1-yl]-1-methyl-pyrazol-4-yl]-2-(2,6-difluoro-3-iodo-phenyl)thiazole-4-carboxamide]
PIM1
  Ki: 0.002 nM
BaF3 parental cells; [2]
  IC50: 1200 nM
BaF3 PIM1 cells
  IC50: 1500 nM

## Cn1ncc(NC(=O)c2nc(-c3ccccc3F)sc2N)c1N1CCCC(C)(N)CC1 (single isomer, unassigned) [Example 434, 5-amino-N-[5-(4-amino-4-methyl-azepan-1-yl)-1-methyl-pyrazol-4-yl]-2-(2-fluorophenyl)thiazole-4-carboxamide]
PIM1
  Ki: 0.093 nM
BaF3 parental cells; [2]
  IC50: 15500 nM
BaF3 PIM1 cells
  IC50: 1000 nM

## Cn1ncc(NC(=O)c2nc(-c3c(F)cccc3F)sc2N)c1N1CCC(C)(N)CC(F)(F)C1 (stereo not shown) [Example 495, 5-amino-N-[5-(5-amino-3,3-difluoro-5-methyl-azepan-1-yl)-1-methyl-pyrazol-4-yl]-2-(2,6-difluorophenyl)thiazole-4-carboxamide]
BaF3 parental cells; [2]
  IC50: 5400 nM
[1]; Homo sapiens, MM1.S, 72 h
  EC50: 888 nM

## CNC1CCN(c2c(NC(=O)c3nc(-c4c(F)cccc4F)sc3N)cnn2C)CC(F)(F)C1 (stereo not shown) [Example 409, 5-amino-N-[5-[3,3-difluoro-5-(methylamino)azepan-1-yl]-1-methyl-pyrazol-4-yl]-2-(2,6-difluorophenyl)thiazole-4-carboxamide]
BaF3 parental cells; BaF3 parental cells with IL-3, incubated overnight
  IC50: 10800 nM
[1]; 72 hours
  EC50: 903 nM
